Test results as given in PubChem BioAssay AID330 (DTP/NCI, 2004).
Values joined by “and” are separate entries in the source; they are usually repeats but may differ in a detail not shown here. Equal entries are not always repeated. Toxic doses and inconclusive results are not listed.

Test system: P388 leukemia ip, CD2F1 mice, survival T/C
Experiment: NCI In Vivo Anticancer Drug Screen. Data for tumor model P388 Leukemia (intraperitoneal) in CD2F1 (CDF1) mice
Conditions: endpoint: median survival time, higher = longer survival
How it was run: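 Mice carrying the transplanted tumor received test compound or vehicle. Survival was recorded in each group, and the value is the treated-group measurement divided by that of the vehicle-treated control group.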

[1] = dose: 12.5 mg/kg/injection, schedule: Q01DX009 (ip), vehicle: saline
[2] = dose: 25.0 mg/kg/injection, schedule: Q01DX009 (ip), vehicle: saline
[3] = dose: 100.0 mg/kg/injection, schedule: Q01DX009 (ip), vehicle: saline
[4] = dose: 200.0 mg/kg/injection, schedule: Q01DX009 (ip), vehicle: saline
[5] = dose: 60.0 mg/kg/injection, schedule: Q01DX005 (ip), vehicle: saline with Tween-80
[6] = dose: 120.0 mg/kg/injection, schedule: Q01DX005 (ip), vehicle: saline with Tween-80
[7] = dose: 240.0 mg/kg/injection, schedule: Q01DX005 (ip), vehicle: saline with Tween-80
[8] = dose: 50.0 mg/kg/injection, schedule: Q01DX005 (ip), vehicle: Klucel (hydroxypropylcellulose) (HPC)
[9] = dose: 100.0 mg/kg/injection, schedule: Q01DX005 (ip), vehicle: Klucel (hydroxypropylcellulose) (HPC)
[10] = dose: 200.0 mg/kg/injection, schedule: Q01DX005 (ip), vehicle: Klucel (hydroxypropylcellulose) (HPC)
[11] = dose: 50.0 mg/kg/injection, schedule: Q01DX009 (ip), vehicle: saline with Tween-80
[12] = dose: 50.0 mg/kg/injection, schedule: Q01DX005 (ip), vehicle: saline with Tween-80
[13] = dose: 100.0 mg/kg/injection, schedule: Q01DX005 (ip), vehicle: saline with Tween-80
[14] = dose: 200.0 mg/kg/injection, schedule: Q01DX005 (ip), vehicle: saline with Tween-80
[15] = dose: 100.0 mg/kg/injection, schedule: Q01DX009 (ip), vehicle: saline with Tween-80
[16] = dose: 100.0 mg/kg/injection, schedule: Q01DX001 (ip), vehicle: Klucel (hydroxypropylcellulose) (HPC)
[17] = dose: 200.0 mg/kg/injection, schedule: Q01DX001 (ip), vehicle: Klucel (hydroxypropylcellulose) (HPC)
[18] = dose: 400.0 mg/kg/injection, schedule: Q01DX001 (ip), vehicle: Klucel (hydroxypropylcellulose) (HPC)
[19] = dose: 12.5 mg/kg/injection, schedule: Q01DX005 (ip), vehicle: Klucel (hydroxypropylcellulose) (HPC)
[20] = dose: 25.0 mg/kg/injection, schedule: Q01DX005 (ip), vehicle: Klucel (hydroxypropylcellulose) (HPC)
[21] = dose: 50.0 mg/kg/injection, schedule: Q01DX009 (ip), vehicle: saline

CN1C(=O)C2CCCN2C(=O)C1(C)NC(=O)OCc1ccccc1 (stereo not given) was tested, and the T/C (dose: 3.12 mg/kg/injection, schedule: Q04DX003 (ip), vehicle: saline) was 107 % of control and 98 % of control, the T/C (dose: 6.25 mg/kg/injection, schedule: Q04DX003 (ip), vehicle: saline) was 105 % of control and 98 % of control and the T/C (dose: 12.5 mg/kg/injection, schedule: Q04DX003 (ip), vehicle: saline) was 102 % of control and 105 % of control. For the same molecule, the T/C (dose: 25.0 mg/kg/injection, schedule: Q04DX003 (ip), vehicle: saline) was 99 % of control and 107 % of control and the T/C (dose: 25.0 mg/kg/injection, schedule: Q04DX003 (ip), vehicle: suspension in saline) was 100 % of control.
c1ccc(CN2CSC3CCCCC32)cc1 (stereo not given) was tested, and the T/C (dose: 25.0 mg/kg/injection, schedule: Q01DX005 (ip), vehicle: saline) was 102 % of control, the T/C (dose: 50.0 mg/kg/injection, schedule: Q01DX005 (ip), vehicle: saline) was 109 % of control and 110 % of control and the T/C (dose: 100.0 mg/kg/injection, schedule: Q01DX005 (ip), vehicle: saline) was 107 % of control and 118 % of control. The T/C (dose: 200.0 mg/kg/injection, schedule: Q01DX005 (ip), vehicle: saline) was 120 % of control.
For C=C[Si](C)(C)c1ccc([Si](C)(C)C=C)cc1, the T/C (dose: 6.25 mg/kg/injection, schedule: Q01DX009 (ip), vehicle: saline) was 107 % of control, the T/C [1] was 105 % of control and the T/C [2] was 117 % of control. For the same molecule, the T/C [3] was 97 % of control and the T/C [4] was 99 % of control.
With COc1cc(C(CC(C)=O)c2cc3c(cc2OC(C)=O)OCO3)cc(OC)c1OC (stereo not given) (tested in a mixture with another compound) the T/C (dose: 30.0 mg/kg/injection, schedule: Q01DX005 (ip), vehicle: saline with Tween-80) was 99 % of control, the T/C [5] was 102 % of control and 122 % of control and the T/C [6] was 118 % of control. The T/C [7] was 162 % of control and 188 % of control.
CC1=CC(=O)N2CC(=O)N(C)c3ccc(Cl)cc3C2(c2ccccc2)O1 (stereo not given) was tested, and the T/C [8] was 104 % of control, the T/C [9] was 92 % of control and the T/C [10] was 92 % of control.
With c1cc2[nH]c3ccncc3c2cn1 the T/C (dose: 25.0 mg/kg/injection, schedule: Q01DX009 (ip), vehicle: saline with Tween-80) was 102 % of control and the T/C [11] was 105 % of control.
With O=S(=O)(Nc1ncccn1)c1ccc(N=Cc2c3ccccc3nc3cc(Cl)ccc23)cc1 the T/C [12] was 91 % of control, the T/C [13] was 90 % of control and the T/C [14] was 89 % of control.
CCOC(=O)C/C(C)=C1/N=C(c2ccccc2)OC1=O was tested, and the T/C [5] was 91 % of control, the T/C [6] was 91 % of control and the T/C [7] was 92 % of control.
In the case of CN(C)c1ccc(C(=O)c2ccc(N(C)C)cc2)cc1, the T/C [15] was 100 % of control, the T/C (dose: 200.0 mg/kg/injection, schedule: Q01DX009 (ip), vehicle: saline with Tween-80) was 112 % of control and the T/C (dose: 400.0 mg/kg/injection, schedule: Q01DX009 (ip), vehicle: saline with Tween-80) was 116 % of control.
With COC(=O)C(C(=O)OC)=S1C=CC=C1 the T/C (dose: 100.0 mg/kg/injection, schedule: Q04DX003 (ip), vehicle: saline) was 106 % of control, the T/C (dose: 200.0 mg/kg/injection, schedule: Q04DX003 (ip), vehicle: saline) was 100 % of control and the T/C (dose: 400.0 mg/kg/injection, schedule: Q04DX003 (ip), vehicle: saline) was 106 % of control.
For O=C1CC(=O)N2CCSC2=N1, the T/C (dose: 50.0 mg/kg/injection, schedule: Q04DX003 (ip), vehicle: saline with Tween-80) was 102 % of control, the T/C (dose: 100.0 mg/kg/injection, schedule: Q04DX003 (ip), vehicle: saline with Tween-80) was 101 % of control and the T/C (dose: 200.0 mg/kg/injection, schedule: Q04DX003 (ip), vehicle: saline with Tween-80) was 102 % of control. For the same molecule, the T/C (dose: 400.0 mg/kg/injection, schedule: Q04DX003 (ip), vehicle: saline with Tween-80) was 98 % of control.
In the case of COCCOCCOCCOCCn1cc(F)c(=O)[nH]c1=O, the T/C (dose: 50.0 mg/kg/injection, schedule: Q04DX002 (ip), vehicle: saline) was 104 % of control, the T/C (dose: 100.0 mg/kg/injection, schedule: Q04DX002 (ip), vehicle: saline) was 94 % of control and the T/C (dose: 200.0 mg/kg/injection, schedule: Q04DX002 (ip), vehicle: saline) was 100 % of control. For the same molecule, the T/C (dose: 400.0 mg/kg/injection, schedule: Q04DX002 (ip), vehicle: saline) was 94 % of control.
c1ccc(C2CC(c3ccccc3)c3ccccc3O2)cc1 (stereo not given) was tested, and the T/C [16] was 87 % of control, the T/C [17] was 90 % of control and the T/C [18] was 96 % of control.
In the case of CCCc1cc(=O)n(-c2ccc([N+](=O)[O-])cn2)c(=S)[nH]1, the T/C [19] was 95 % of control, the T/C [20] was 106 % of control and the T/C [8] was 101 % of control and 116 % of control.
CN1C(=O)/C(=c2\sc3nc4ccccc4n3c2=O)c2cc(Br)ccc21 was tested, and the T/C [16] was 99 % of control, the T/C [17] was 99 % of control and the T/C [18] was 101 % of control.
In the case of CN1CCc2[nH]c3ccccc3c2C1, the T/C (dose: 100.0 mg/kg/injection, schedule: Q04DX002 (ip), vehicle: Klucel (hydroxypropylcellulose) (HPC)) was 100 % of control and the T/C (dose: 200.0 mg/kg/injection, schedule: Q04DX002 (ip), vehicle: Klucel (hydroxypropylcellulose) (HPC)) was 102 % of control.
CC1(C)Nc2cccc3cccc(c23)N1 was tested, and the T/C [8] was 108 % of control and the T/C [9] was 86 % of control.
With COc1cc(C(=O)Nc2ccc(S(=O)(=O)Nc3nc(C)cc(C)n3)cc2)cc(OC)c1OC the T/C [12] was 98 % of control, the T/C [13] was 88 % of control and the T/C [14] was 103 % of control.
In the case of COC(C(N)=O)c1ccccc1 (stereo not given), the T/C [1] was 120 % of control, the T/C [2] was 110 % of control and the T/C [21] was 103 % of control. The T/C [4] was 103 % of control and the T/C (dose: 400.0 mg/kg/injection, schedule: Q01DX009 (ip), vehicle: saline) was 106 % of control.
With COc1ccc(/C(CC2(O)C(=O)Nc3ccccc32)=N\NC(=O)NN)cc1O (stereo not given) the T/C [12] was 101 % of control, the T/C [13] was 107 % of control and the T/C [14] was 100 % of control.
With OC1c2ccccc2-c2cccc(N=Cc3ccc4c(c3)OCO4)c21 (stereo not given) the T/C [5] was 108 % of control, the T/C [6] was 97 % of control and the T/C [7] was 95 % of control.
CCC(NN)C(=O)OCc1ccccc1 (stereo not given) was tested, and the T/C [8] was 97 % of control, the T/C [9] was 95 % of control and the T/C [10] was 103 % of control.
For CN(C)c1ccc2[nH]cc(C(=O)O)c(=O)c2c1, the T/C (dose: 7.5 mg/kg/injection, schedule: Q01DX005 (ip), vehicle: Klucel (hydroxypropylcellulose) (HPC)) was 99 % of control, the T/C (dose: 15.0 mg/kg/injection, schedule: Q01DX005 (ip), vehicle: Klucel (hydroxypropylcellulose) (HPC)) was 102 % of control and the T/C (dose: 30.0 mg/kg/injection, schedule: Q01DX005 (ip), vehicle: Klucel (hydroxypropylcellulose) (HPC)) was 102 % of control.
With Cc1ccc(S(=O)(=O)N=Nc2c(O)[nH]c3c(Cl)cc(Cl)cc23)cc1 the T/C [12] was 103 % of control, the T/C [13] was 100 % of control and the T/C [14] was 95 % of control.
In the case of COC(C)(C)c1ccc(C)c(O)c1, the T/C (dose: 4.38 mg/kg/injection, schedule: Q01DX005 (ip), vehicle: Klucel (hydroxypropylcellulose) (HPC)) was 96 % of control, the T/C (dose: 8.75 mg/kg/injection, schedule: Q01DX005 (ip), vehicle: Klucel (hydroxypropylcellulose) (HPC)) was 95 % of control and the T/C (dose: 17.5 mg/kg/injection, schedule: Q01DX005 (ip), vehicle: Klucel (hydroxypropylcellulose) (HPC)) was 92 % of control. For the same molecule, the T/C (dose: 35.0 mg/kg/injection, schedule: Q01DX005 (ip), vehicle: Klucel (hydroxypropylcellulose) (HPC)) was 91 % of control.
For N#CC(C(=O)O)c1ccc([N+](=O)[O-])cc1 (stereo not given), the T/C [8] was 105 % of control, the T/C [9] was 96 % of control and the T/C [10] was 99 % of control.
For CCCC(=O)C#C[Si](C)(C)C, the T/C [12] was 103 % of control and the T/C [13] was 103 % of control.
For CC1(C)OCC2OC3OC(C)(C)OC3C(OS(C)(=O)=O)C2O1 (stereo not given), the T/C [12] was 98 % of control, the T/C [13] was 105 % of control and the T/C [14] was 99 % of control.
With CC(Cc1ccccc1)NC(=O)C1CC2CCCCN2C1C (stereo not given) the T/C [5] was 97 % of control and the T/C [6] was 95 % of control.
With O=C(OCc1ccccc1)C(Cc1c[nH]c2ccccc12)n1cnc2ccccc2c1=O (stereo not given) the T/C [19] was 97 % of control, the T/C [20] was 97 % of control and the T/C [8] was 96 % of control.
In the case of CC1C2C=CC1C=C2 (stereo not given), the T/C [21] was 98 % of control, the T/C [3] was 91 % of control and the T/C [4] was 98 % of control.
In the case of CNS(=O)(=O)O, the T/C [1] was 86 % of control, the T/C [2] was 104 % of control and the T/C [21] was 105 % of control. For the same molecule, the T/C [3] was 100 % of control.
In the case of CC(C)C(=NC1CCCCC1)NC(C)(C)C, the T/C [11] was 93 % of control and the T/C [15] was 99 % of control.
